Structures can show the parent of a compound that is named as a salt.
Test: in vitro
Settings: rat, gh3-tre-luc cells, AC50 (uM) modified / 1000

`Cc1cc(-c2cc(C)c(N)c(C)c2)cc(C)c1N` [3,3',5,5'-Tetramethylbenzidine] and `Cc1cccc(N)c1C` [2,3-Dimethylaniline] cannot be ordered by CC50 at 24 h: greater than 90 µM for the first, greater than 90 µM for the second.

`CCCSC(=O)Cl` [S-(Propyl) chlorothioformate] and `CCCCCCC(=O)O` [Heptanoic acid] cannot be ordered by CC50 at 24 h: greater than 90 µM for the first, greater than 90 µM for the second.

`CCOC(=O)c1cccnc1` [Ethyl nicotinate] and `CCOC(=O)CC(=O)c1ccccc1` [Ethyl benzoylacetate] cannot be ordered by CC50 at 24 h: greater than 50 µM for the first, greater than 90 µM for the second.

`CCCn1cc[n+](C)c1C` [1,2-Dimethyl-3-propylimidazolium iodide] and `CCCC[n+]1ccccc1` [1-Butylpyridinium hexafluorophosphate] cannot be ordered by CC50 at 24 h: greater than 90 µM for the first, greater than 90 µM for the second.

First: CCN(CC)c1ccc2c(-c3ccc(S(=O)(=O)O)cc3S(=O)(=O)[O-])c3ccc(=[N+](CC)CC)cc-3oc2c1 [C.I. Acid Red 52]
Second: CCN(Cc1cccc(S(=O)(=O)O)c1)c1ccc(C(=C2C=CC(=[N+](CC)Cc3cccc(S(=O)(=O)[O-])c3)C=C2)c2ccccc2)cc1 [FD&C Green No. 1]
The CC50 at 24 h of the first is lower: 13.4 µM for the first, greater than 70 µM for the second.

First: CCCCCCCCCCCCCCCCCCOCC(COP(=O)([O-])OCC[N+](C)(C)C)OC (centres unmarked) [Edelfosine]
Second: CCCCCCCCCCCCCCCCCC(=O)OCCO [2-Hydroxyethyl octadecanoate]
The CC50 at 24 h of the first is lower: 43.1 µM for the first, greater than 50 µM for the second.

`CCCCOC(CC)OC(C)COC(O)CC` (centres unmarked) [Tripropylene glycol butyl ether] and `CCCCCCOC(=O)C(C)CC` (centres unmarked) [Hexyl 2-methylbutanoate] cannot be ordered by CC50 at 24 h: greater than 90 µM for the first, greater than 90 µM for the second.

`CCOC(=O)O[C@]1(C(=O)OCCl)CC[C@H]2[C@@H]3CCC4=CC(=O)C=C[C@]4(C)[C@H]3[C@@H](O)C[C@@]21C` [Loteprednol etabonate] and `C#C[C@]1(O)CC[C@H]2[C@@H]3CCC4=CC(=O)CCC4=C3C=C[C@@]21CC` [Gestrinone] cannot be ordered by CC50 at 24 h: greater than 50 µM for the first, greater than 50 µM for the second.

`Cc1ccccc1` [Toluene] and `CCN(Cc1ccccc1)c1ccccc1` [N-Ethyl-N-phenyl benzylamine] cannot be ordered by CC50 at 24 h: greater than 90 µM for the first, greater than 90 µM for the second.

`CC(=O)CC(C)(C)O` [Diacetone alcohol] and `COC(=O)C(C)(C)C` [Methyl pivalate] cannot be ordered by CC50 at 24 h: greater than 90 µM for the first, greater than 90 µM for the second.

`CC(C)=CCC[C@@](C)(O)[C@H]1CC=C(C)CC1` [Bisabolol] and `CC(C)=CCC[C@H](C)CCO` [(S)-(-)-beta-Citronellol] cannot be ordered by CC50 at 24 h: greater than 50 µM for the first, greater than 90 µM for the second.

`COCCOC(=O)C1=C(C)NC(C)=C(C(=O)OC(C)C)C1c1cccc([N+](=O)[O-])c1` (centres unmarked) [Nimodipine] and `CCCCOC(=O)C(=O)Nc1cccc(-c2nnn[nH]2)c1` [Tazanolast] cannot be ordered by CC50 at 24 h: greater than 50 µM for the first, greater than 50 µM for the second.

`CN1CCN(C(=O)C2CCCCC2)CC1` [Pexantel] and `OC(CCN1CCCCC1)(c1ccccc1)C1CCCCC1` (centres unmarked) [Trihexyphenidyl hydrochloride] cannot be ordered by CC50 at 24 h: greater than 50 µM for the first, greater than 50 µM for the second.

First: Cc1cc(=O)c2c(O)c3c(O)cc(=O)c4c3c3c(cc(O)c1c23)C(C)(C)C=4O [Geliomycin]
Second: COC(=O)c1cc(C(=O)OC)cc(S(=O)(=O)O)c1 [Sodium 3,5-bis(methoxycarbonyl)benzenesulfonate]
The CC50 at 24 h of the first is lower: 0.889 µM for the first, greater than 90 µM for the second.

`O=C(NC(Cc1cc(=O)[nH]c2ccccc12)C(=O)O)c1ccc(Cl)cc1` (centres unmarked) [Rebamipide] and `OCc1c2ccccc2cc2ccccc12` [9-Anthracenemethanol] cannot be ordered by CC50 at 24 h: greater than 50 µM for the first, greater than 90 µM for the second.

`CCCCCC/C=C/C=O` [(E)-2-Nonenal] and `CCCCCCCCCOC(C)=O` [Nonyl acetate] cannot be ordered by CC50 at 24 h: greater than 90 µM for the first, greater than 90 µM for the second.

Compared with `Cc1cc2c3c(c1)C(c1ccccc1)=N[C@@H](NC(=O)c1ccncc1)C(=O)N3CC2` [CI-1018], `O=C1c2ccccc2Cc2ccccc21` [Anthrone] is lower in CC50 at 24 h: greater than 90 µM for the first, 13.5 µM for the second.

`O=C(N=NC(=O)OCc1ccccc1)OCc1ccccc1` [Dibenzyl diazene-1,2-dicarboxylate] and `OC(CCCN1CCCCC1)(c1ccccc1)c1ccccc1` [Diphenidol] cannot be ordered by CC50 at 24 h: greater than 90 µM for the first, greater than 50 µM for the second.

`CN(C)CCCO[C@@H]1[C@H]2OC(C)(C)O[C@H]2O[C@@H]1[C@H](O)CO` [Amiprilose hydrochloride] and `O=[N+]([O-])O[C@@H]1CO[C@H]2[C@@H]1OC[C@@H]2O` [Isosorbide 5-mononitrate] cannot be ordered by CC50 at 24 h: greater than 50 µM for the first, greater than 50 µM for the second.

`CC(C)(C)C1CCCCC1=O` (centres unmarked) [2-tert-Butylcyclohexanone] and `CC(=O)CCC1=C(C)CCCC1(C)C` [Dihydro-beta-ionone] cannot be ordered by CC50 at 24 h: greater than 90 µM for the first, greater than 90 µM for the second.

`O=C=Nc1ccc(Cc2ccc(N=C=O)cc2)cc1` [4,4'-Diphenylmethane diisocyanate] and `CC(Oc1ccc(Oc2ncc(C(F)(F)F)cc2Cl)cc1)C(=O)O` (centres unmarked) [Haloxyfop] cannot be ordered by CC50 at 24 h: greater than 90 µM for the first, greater than 90 µM for the second.

`C1OCOCO1` [1,3,5-Trioxane] and `NC[C@H]1CC[C@H](C(=O)O)CC1` [Tranexamic acid] cannot be ordered by CC50 at 24 h: greater than 90 µM for the first, greater than 20 µM for the second.

`CCOCC(O)COc1ccc(NC(=O)CC[S+](C)C)cc1` (centres unmarked) [Suplatast tosylate] and `CC(C)NCC(O)c1ccc(N)c(C#N)c1` (centres unmarked) [Cimaterol] cannot be ordered by CC50 at 24 h: greater than 50 µM for the first, greater than 50 µM for the second.

Going from `C[C@@H]1[C@H](O)[C@@H](C)/C=C/C=C/C=C/C=C/C=C/C=C/C=C/[C@H](O[C@@H]2O[C@H](C)[C@@H](O)[C@H](N)[C@@H]2O)C[C@@H]2O[C@](O)(C[C@@H](O)C[C@@H](O)[C@H](O)CC[C@@H](O)C[C@@H](O)CC(=O)O[C@H]1C)C[C@H](O)[C@H]2C(=O)O` [Amphotericin B] to `O=C(O)/C=C(\CC(=O)O)C(=O)O` [trans-Aconitic acid], the CC50 at 24 h rises from 32.9 µM to greater than 50 µM.

`CCOC(=O)CC#N` [Ethyl cyanoacetate] and `N[C@@H](CCC(=O)O)C(=O)O` [L-Glutamic acid hydrochloride] cannot be ordered by CC50 at 24 h: greater than 90 µM for the first, greater than 90 µM for the second.

`CCCCCCCCCCCCOCC1CO1` (centres unmarked) [Dodecyl glycidyl ether] and `CO[Si](CCCNCCC[Si](OC)(OC)OC)(OC)OC` [3-(Trimethoxysilyl)-N-[3-(trimethoxysilyl)propyl]propan-1-amine] cannot be ordered by CC50 at 24 h: greater than 90 µM for the first, greater than 90 µM for the second.

`CCC(C)OC(C)CC` (centres unmarked) [Bis(2-butyl) ether] and `COc1ccc2c(c1)c1c3n2CCN(C)C3=NCC1` [Metralindole] cannot be ordered by CC50 at 24 h: greater than 100 µM for the first, greater than 50 µM for the second.

Same assay, conditions: rat, gh3-tre-luc cells, AC50 (uM) modified / 1000, Tox21_110001=Tox21_111116; viability, 1 nM T3 present, 24 h

`Cc1cc(O)ccc1Cl` [4-Chloro-3-methylphenol] gave a CC50 at 24 h greater than 50 µM.

Same assay, conditions: rat, gh3-tre-luc cells, AC50 (uM) modified / 1000, Tox21_110001=Tox21_111815; viability, 1 nM T3 present, 24 h

With `CC(C)C(Br)C(=O)NC(N)=O` (centres unmarked) [Bromisovalum] the CC50 at 24 h was greater than 50 µM.

Same assay, conditions: rat, gh3-tre-luc cells, AC50 (uM) modified / 1000, Tox21_110001=Tox21_112754; viability, 1 nM T3 present, 24 h

`CCC/C=C/C=C/C(=O)O[C@H]1/C(=C/C(=O)OC)C[C@H]2C[C@H]([C@@H](C)O)OC(=O)C[C@H](O)C[C@@H]3C[C@H](OC(C)=O)C(C)(C)[C@](O)(C[C@@H]4C/C(=C/C(=O)OC)C[C@H](/C=C/C(C)(C)[C@]1(O)O2)O4)O3` [Bryostatin 1] gave a CC50 at 24 h of 9.94 µM.

Same assay, conditions: rat, gh3-tre-luc cells, AC50 (uM) modified / 1000, Tox21_110001=Tox21_113359; viability, 1 nM T3 present, 24 h

Work on `CCOP(=S)(OCC)SCSc1ccc(Cl)cc1` [Carbophenothion] yielded a CC50 at 24 h greater than 50 µM.

Same assay, conditions: rat, gh3-tre-luc cells, AC50 (uM) modified / 1000, Tox21_110001=Tox21_200074; viability, 1 nM T3 present, 24 h

`ClC(Cl)C(Cl)Cl` [1,1,2,2-Tetrachloroethane] gave a CC50 at 24 h greater than 90 µM.

Same assay, conditions: rat, gh3-tre-luc cells, AC50 (uM) modified / 1000, Tox21_110001=Tox21_201293; viability, 1 nM T3 present, 24 h

`Cc1cc(O)ccc1Cl` [4-Chloro-3-methylphenol] gave a CC50 at 24 h greater than 90 µM.

Same assay, conditions: rat, gh3-tre-luc cells, AC50 (uM) modified / 1000, Tox21_110001=Tox21_202359; viability, 1 nM T3 present, 24 h

`Nc1ccc(-c2ccc(N)cc2)cc1` [Benzidine] gave a CC50 at 24 h greater than 90 µM.

Same assay, conditions: rat, gh3-tre-luc cells, AC50 (uM) modified / 1000, Tox21_110001=Tox21_202584; viability, 1 nM T3 present, 24 h

With `Nc1ccc(-c2ccc(N)cc2)cc1` [Benzidine dihydrochloride] the CC50 at 24 h was greater than 50 µM.

Same assay, conditions: rat, gh3-tre-luc cells, AC50 (uM) modified / 1000, Tox21_110001=Tox21_300782; viability, 1 nM T3 present, 24 h

`O=S1(=O)OCC2C(CO1)C1(Cl)C(Cl)=C(Cl)C2(Cl)C1(Cl)Cl` (centres unmarked) [Endosulfan sulfate] showed a CC50 at 24 h of 56.1 µM.

Same assay, conditions: rat, gh3-tre-luc cells, AC50 (uM) modified / 1000, Tox21_110001=Tox21_300965; viability, 1 nM T3 present, 24 h

With `CCOP(=S)(Oc1cnc(C(C)(C)C)nc1)OC(C)C` (centres unmarked) [Tebupirimfos] the CC50 at 24 h was 52.3 µM.

Same assay, conditions: rat, gh3-tre-luc cells, AC50 (uM) modified / 1000, Tox21_110001=Tox21_301426; viability, 1 nM T3 present, 24 h

For `CCOP(=S)(OCC)SCSc1ccc(Cl)cc1` [Carbophenothion], the CC50 at 24 h was greater than 90 µM.

From paper PMC6792352, “Limited Chemical Structural Diversity Found to Modulate Thyroid Hormone Receptor in the Tox21 Chemical Library” (Environmental Health Perspectives, 2019)
